The results in this text go back to ChEMBL document CHEMBL1136440, “Design and synthesis of novel RXR-selective modulators with improved pharmacological profile” (Bioorg Med Chem Lett, 2003).

In test [1] the target is T1, Peroxisome proliferator-activated receptor gamma (Homo sapiens, UniProt P37231).
T1 sequence (P37231 whole entry): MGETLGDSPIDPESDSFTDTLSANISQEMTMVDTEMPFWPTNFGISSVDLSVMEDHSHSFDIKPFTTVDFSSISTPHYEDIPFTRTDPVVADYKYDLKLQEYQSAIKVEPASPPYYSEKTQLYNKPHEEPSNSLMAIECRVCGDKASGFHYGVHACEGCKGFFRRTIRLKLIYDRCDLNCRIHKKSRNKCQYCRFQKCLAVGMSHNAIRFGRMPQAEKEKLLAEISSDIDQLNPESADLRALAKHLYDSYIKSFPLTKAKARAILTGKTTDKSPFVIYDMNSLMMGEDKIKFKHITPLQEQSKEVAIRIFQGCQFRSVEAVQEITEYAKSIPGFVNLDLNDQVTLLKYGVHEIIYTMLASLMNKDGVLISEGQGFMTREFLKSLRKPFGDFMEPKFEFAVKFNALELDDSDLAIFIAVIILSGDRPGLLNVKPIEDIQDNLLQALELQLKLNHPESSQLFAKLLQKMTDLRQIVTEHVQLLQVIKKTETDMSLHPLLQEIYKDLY
Description: In vitro agonistic activity against PPAR gamma along with 100 nM BRL-49653

Test [2] concerns the target T2, Retinoic acid receptor gamma (Homo sapiens, UniProt P13631).
T2 sequence (P13631 whole entry): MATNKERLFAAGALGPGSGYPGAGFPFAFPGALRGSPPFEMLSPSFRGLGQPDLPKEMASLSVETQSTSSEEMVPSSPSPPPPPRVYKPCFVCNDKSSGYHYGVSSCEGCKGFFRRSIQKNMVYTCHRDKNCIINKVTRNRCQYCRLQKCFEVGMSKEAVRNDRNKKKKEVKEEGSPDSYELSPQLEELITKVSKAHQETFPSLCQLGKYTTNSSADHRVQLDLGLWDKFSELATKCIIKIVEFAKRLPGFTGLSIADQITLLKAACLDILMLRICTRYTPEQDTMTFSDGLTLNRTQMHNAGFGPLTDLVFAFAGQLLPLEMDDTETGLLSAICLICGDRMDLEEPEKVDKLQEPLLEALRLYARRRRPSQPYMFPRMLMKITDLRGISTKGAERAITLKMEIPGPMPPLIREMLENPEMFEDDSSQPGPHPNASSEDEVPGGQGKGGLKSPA
Description: Binding affinity against RAR gamma receptor using [3H]ATRA as radioligand in CV-1 cells. The test is classed as cell-based, Cercopithecidae.

Test [3] addresses T3, Retinoic acid receptor RXR-alpha (Homo sapiens, UniProt P19793).
T3 sequence (P19793 whole entry): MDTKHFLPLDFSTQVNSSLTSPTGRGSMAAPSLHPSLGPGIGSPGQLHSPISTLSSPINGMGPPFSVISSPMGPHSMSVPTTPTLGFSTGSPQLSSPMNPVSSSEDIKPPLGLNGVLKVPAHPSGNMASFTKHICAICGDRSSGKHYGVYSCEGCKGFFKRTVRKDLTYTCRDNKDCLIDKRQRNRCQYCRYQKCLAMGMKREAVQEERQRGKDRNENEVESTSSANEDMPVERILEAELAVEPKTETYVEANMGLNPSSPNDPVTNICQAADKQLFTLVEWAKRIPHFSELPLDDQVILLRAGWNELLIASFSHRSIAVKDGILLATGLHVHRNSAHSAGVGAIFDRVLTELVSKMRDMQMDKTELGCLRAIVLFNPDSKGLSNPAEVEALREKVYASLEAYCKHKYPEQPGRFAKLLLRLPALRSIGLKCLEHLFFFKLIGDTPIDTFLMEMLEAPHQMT
Description: biochemical.
Description: Binding affinity against RXR alpha receptor using [3H]9-cis-RA as radioligand in CV-1 cells

Test [4] deals with T4, Retinoic acid receptor alpha (Homo sapiens) (UniProt P10276).
T4 sequence (whole entry): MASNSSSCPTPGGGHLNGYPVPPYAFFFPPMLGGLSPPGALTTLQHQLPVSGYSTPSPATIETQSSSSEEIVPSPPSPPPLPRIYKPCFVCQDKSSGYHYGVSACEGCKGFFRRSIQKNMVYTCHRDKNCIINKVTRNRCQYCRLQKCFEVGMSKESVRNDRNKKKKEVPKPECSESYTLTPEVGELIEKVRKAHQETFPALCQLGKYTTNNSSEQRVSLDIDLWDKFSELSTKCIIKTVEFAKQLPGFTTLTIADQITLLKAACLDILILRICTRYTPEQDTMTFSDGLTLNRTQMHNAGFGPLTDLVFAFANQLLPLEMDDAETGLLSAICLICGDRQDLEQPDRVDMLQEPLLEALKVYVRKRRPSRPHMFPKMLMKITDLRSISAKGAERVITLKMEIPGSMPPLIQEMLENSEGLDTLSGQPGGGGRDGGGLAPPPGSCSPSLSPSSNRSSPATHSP
Description: Agonist synergy against RAR alpha was tested along with 3 nM TTNPB. Conditions: Cercopithecidae. The class given is functional.

For test [5], the target named is T5, Retinoic acid receptor alpha (Homo sapiens, UniProt P10276).
T5 sequence (P10276 whole entry): T4 sequence (whole entry)
Description: Binding affinity against RAR alpha receptor using [3H]ATRA as radioligand in CV-1 cells. The class given is cell-based, Cercopithecidae.

Test [6] concerns the target T3, Retinoic acid receptor RXR-alpha. Description: In vitro agonistic activity against RXR alpha in CV-1 cells. The test is classed as functional, cell-based, Cercopithecidae.

Structures are written as SMILES.

In the case of `C/C(=C/C=C/C(C)=C/C(=O)O)c1cc(-c2ccccc2F)cc(C(C)C)c1OCC(F)F`, in test [1], the response was half-maximal at 0.0004 µM (EC50). Moreover, the Ki in test [2] was found to be 8.76 µM; in test [3], 0.0023 µM; in test [5], 6.76 µM. For the same molecule, the Synergy in test [4] is 1.5 nM.
With `CCOc1c(\C(C)=C/C=C/C(C)=C/C(=O)O)cc(C(F)(F)C(F)(F)F)cc1C(C)C`, the results for the EC50 in test [1] and in test [6] were 0.0007 µM and 0.092 µM, respectively. The inhibition constant (Ki) in test [2] was > 10 µM; in test [3] it was 0.0063 µM; in test [5], > 10 µM. In addition, the Synergy in test [4] turned out to be 2.8 nM.
